Measured values: US20100210649A1, “PYRIDAZINONES AND FURAN-CONTAINING COMPOUNDS” (Sloan-Kettering Institute for Cancer Research, priority 2006, published 2010)
Several values for one entry are separate records, joined by “and”; a condition that tells them apart may be missing. Equal entries are not always repeated. Where two headings read alike, the source gives them in different places.

Experiments:
H1650 = assay: Non Small Cell Lung Cancer proliferation assay (Alamar Blue reduction), H1650; assay type: cell-based, human; conditions: for inhibition at 10 µM: NCI-H1650, primary screening, H1650, read-out: PRIMARY HTS [%] H1650 (percentage inhibition); for inhibition at 10 µM / CONFIRMATION [%] 1650: 10 μM compound in 1% DMSO (v/v); for CONFIRMATION [%] 1650: percentage inhibition
Summary of the method: (§1)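 Viability after 48 hours of drug exposure at 37° C is scored by Alamar Blue reduction over a subsequent 48 hours, read at 530/590 nm. DMSO-only wells (1% final) define the high control.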

H1975 = assay: Non Small Cell Lung Cancer proliferation assay (Alamar Blue reduction), H1975; assay type: cell-based, human; conditions: for IC50 / inhibition at 10 µM: Homo sapiens; for inhibition at 10 µM: NCI-H1975, primary screening, H1975, read-out: PRIMARY HTS [%] H1975 (percentage inhibition); for inhibition at 10 µM / CONFIRMATION [%] 1975: 10 μM compound in 1% DMSO (v/v); for CONFIRMATION [%] 1975: percentage inhibition
Summary of the method: as §1

H2030 = assay: Non Small Cell Lung Cancer proliferation assay (Alamar Blue reduction), H2030; assay type: cell-based, human; conditions: for IC50 / inhibition at 10 µM: Homo sapiens; for inhibition at 10 µM: NCI-H2030, primary screening, H2030, read-out: PRIMARY HTS [%] H2030 (percentage inhibition); for inhibition at 10 µM / CONFIRMATION [%] 2030: 10 μM compound in 1% DMSO (v/v); for CONFIRMATION [%] 2030: percentage inhibition
Summary of the method: as §1

H3255 = assay: Non Small Cell Lung Cancer proliferation assay (Alamar Blue reduction), H3255; assay type: cell-based, human; conditions: for IC50 / inhibition at 10 µM: Homo sapiens; for inhibition at 10 µM: NCI-H3255, primary screening, H3255, read-out: PRIMARY HTS [%] H3255 (percentage inhibition); for inhibition at 10 µM / CONFIRMATION [%] 3255: 10 μM compound in 1% DMSO (v/v); for CONFIRMATION [%] 3255: percentage inhibition
Summary of the method: as §1

H358 = assay: Non Small Cell Lung Cancer proliferation assay (Alamar Blue reduction), H358; assay type: cell-based; conditions: Homo sapiens, NCI-H358; read-out: Dose Response (uM) H358
Description: (§2) These cells have a doubling time of 1-2 days. All cell types are adherent and grow in colonies. The cells should be kept at a density between 50,000 cells/mL -500,000 cells/mL to provide for optimum growth and adequate nutrition. The cell line should be maintained at 37° C. in a humidified atmosphere with 5% CO2 in a sterile cell culture incubator.
(§3) Non Small Cell Lung Cancer Proliferation Assay.
(§4) High Controls for this assay are made by treating Non Small Cell Lung Cancer cells with 5 ul of 10% DMSO. [Final concentration in this assay is 1% DMSO].
(§5) Important Note: All compounds for testing in this assay should be done at the final concentration of 1% DMSO.
(§6) After addition, the cells are placed in cell culture incubator at 37° C. for 48 hours for complete treatment.
(§7) After drug treatment, cytotoxicity is measured by Alamar Blue reduction.
(§8) The cells are incubated for 48 hours at 37° C. to complete the Alamar Blue reduction.
(§9) The final step in the assay is to measure the amount of Alamar Blue reduction. […] The Alamar Blue fluorescence is measured at an excitation of 530 nm and emission of 590 nm.
(§10) For the NSCLC project, the cell based assay was screened against a small molecule library of approximately 200,000 compounds. The compound library is stored in our automated robotic freezer (Biophile) at −20° C. in 100% DMSO. Compound freeze and thaw cycles are kept to a minimum. […] This assay was performed on a fully automated linear track robotic platform (CRS F3 Robot System, Thermo Electron Corp., Ontario, Canada) utilizing several integrated peripherals for plate handling, liquid dispensing, and readout detection. […] The microplates are then placed at 37° C. for 48 hours to complete treatment of cells with compounds. Next, 5 ul of alamar blue was added using a liquid dispenser (Flexprop Precision Dispenser, Perkin Elmer, Mass., USA) and incubated for 48 hours at 37° C. The alamar blue prompt fluorescence was measured on Victor V (Victor^3 V, Perkin Elmer, Mass., USA) and output data files were loaded into ORIS (Oncology Research Informatics System, MSKCC, NY, USA), a screening data acquisition and analysis platform.
(§11) The dose response studies were done with the following standard procedure. First, the cells were counted and dispensed at 250 cells/well into 384-well microplates with compound. The cells were incubated for 48 hours at 37 C to complete treatment, and then alamar blue was added for an additional 48 hours. Finally, alamar blue reduction was measured and the data was loaded into ORIS, our data screening acquisition platform.

H827 = assay: Non Small Cell Lung Cancer proliferation assay (Alamar Blue reduction), H827; assay type: cell-based; conditions: Homo sapiens; read-out: Dose Response (uM) H827
Description: […] are grown and maintained in Corning 175 cm2 flasks in RPMI 1640 media supplemented with 10% FBS, 1% antibiotic solution, 1% additional glutamine and pyruvate. These cells have a doubling time of 1-2 days. All cell types are adherent and grow in colonies. The cells should be kept at a density between 50,000 cells/mL -500,000 cells/mL to provide for optimum growth and adequate nutrition. The cell line should be maintained at 37° C. in a humidified atmosphere with 5% CO2 in a sterile cell culture incubator.
(§12) Non Small Cell Lung Cancer Proliferation Assay. To perform the assay, the Non Small Cell Lung Cancer lines are diluted in media and plated into 384 well microplates at a final density of 250 cells in […]. To ensure consistency and minimal pipetting error, the cells are plated using the Multidrop 384 with the following settings: Rocker Switch set at 384, Volume 45 and Column 24.
(§13) Low Controls for this assay are made by treating Non Small Cell Lung Cancer cells with 5 ul of staurosporine at 250 uM in 10% DMSO and 1% SDS. [Final concentration in this assay is 25 uM staurosporine in 1% DMSO and 0.1% SDS.]
as §4
(§14) The remaining wells of the 384 microplate may be treated with different compounds depending on the study. Important Note: All compounds for testing in this assay should be done at the final concentration of 1% DMSO.
as §6
(§15) After drug treatment, cytotoxicity is measured by Alamar Blue reduction. 5 μL of Alamar Blue is added to the 384 microplates using the Flexdrop.
as §8, §9
(§16) For the NSCLC project, the cell based assay was screened against a small molecule library of approximately 200,000 compounds. The compound library is stored in our automated robotic freezer (Biophile) at −20° C. in 100% DMSO. Compound freeze and thaw cycles are kept to a minimum. Compounds for use are diluted into the appropriate concentration and plated into 384 well microplates using our custom built low volume 384-well head tool (TPS 384, Apricot Designs Inc., CA, USA). This assay was performed on a fully automated linear track robotic platform (CRS F3 Robot System, Thermo Electron Corp., Ontario, Canada) utilizing several integrated peripherals for plate handling, liquid dispensing, and readout detection. First, non-small cell lung cancer cell lines are dispensed into 384 well microplates (Corning #3712 Tissue Culture Treated Plate, Corning, N.Y., USA) with 5 μL of test compounds at 100 uM in 10% DMSO for screening studies or […] in 10% DMSO to 50 nM in 10% DMSO for dose response studies. The microplates are then placed at 37° C. for 48 hours to complete treatment of cells with compounds. Next, 5 ul of alamar blue was added using a liquid dispenser (Flexprop Precision Dispenser, Perkin Elmer, Mass., USA) and incubated for 48 hours at 37° C. The alamar blue prompt fluorescence was measured on Victor V (Victor^3 V, Perkin Elmer, Mass., USA) and output data files were loaded into ORIS (Oncology Research Informatics System, MSKCC, NY, USA), a screening data acquisition and analysis platform.

H1118 = assay: Non Small Cell Lung Cancer proliferation assay (Alamar Blue reduction), H1118; assay type: cell-based; conditions: Homo sapiens; read-out: Dose Response (uM) H1118
Description: as §12, §13, §4, §14, §6, §15, §8, §9, §16, §11

H1734 = assay: Non Small Cell Lung Cancer proliferation assay (Alamar Blue reduction), H1734; assay type: cell-based, human; conditions: Homo sapiens, NCI-H1734; read-out: Dose Response (uM) H1734
Description: as §2, §3, §4, §5, §6, §7, §8, §9, §10, §11

in vitro = conditions: human
Description: (§17) NHBE (normal human bronchiolar epithelial cells) are primary cells obtained from donor lungs and commercially available from Cambrex. The HPL1D (human peripheral lung epithelial) cell line has been immortalized with the SV40 large T-antigen. WI-38: human lung fibroblast cell line. HPLID, NHBE and WI-38 cells will serve as controls in the chemical screens. WT: wildtype; WT*: over-expressed wildtype.
(§18) Compounds were tested in dose response studies from […] to 5 nM against several non small cell lung cancer lines: H358, H827, H1118, H1650, H1734, H1975, H2030, and H3255, and were also studied in a 72 hour cytotoxicity assay against the NHBE and WI-38 cell lines.

[1] = system: NHBE (normal human bronchiolar epithelial cells); assay: cells; conditions: Homo sapiens, NHBE, read-out: IC50(uM) NHBE, phenylfuran-2-carboxamide SAR summary
Description: as §17, §18

[2] = Homo sapiens, NCI-H1650, dose response 10 M to 5 nM, IC50, read-out: Dose Response (uM) H1650
[3] = NCI-H1975, dose response 10 M to 5 nM, IC50, read-out: Dose Response (uM) H1975
[4] = NCI-H2030, dose response 10 M to 5 nM, IC50, read-out: Dose Response (uM) H2030
[5] = NCI-H3255, dose response 10 M to 5 nM, IC50, read-out: Dose Response (uM) H3255
[6] = Homo sapiens, NCI-H1650, phenylfuran-2-carboxamide SAR summary, read-out: IC50(uM) 1650

| SMILES | IC50 (H1650; [2]) | IC50 (H1975; [3]) | IC50 (H2030; [4]) | IC50 (H3255; [5]) | IC50 (H358) | IC50 (H827) | IC50 (H1118) | IC50 (H1734) | IC50 at 72 h (in vitro; CytoTox (uM) NHBE) | IC50 at 72 h (in vitro; CytoTox (uM) WI-38) | IC50 (H1650; [6]) | inhibition at 10 µM (H1650; Homo sapiens) | CONFIRMATION [%] 1650 (H1650) | inhibition at 10 µM (H1975) | CONFIRMATION [%] 1975 (H1975) | inhibition at 10 µM (H2030) | CONFIRMATION [%] 2030 (H2030) | inhibition at 10 µM (H3255) | CONFIRMATION [%] 3255 (H3255) | IC50 [1] | further results |
| --- | --- | --- | --- | --- | --- | --- | --- | --- | --- | --- | --- | --- | --- | --- | --- | --- | --- | --- | --- | --- | --- |
| N/N=C1\C=NN(c2ccccc2)C(=O)C1Cl (stereo not shown) [compound 257023] | > 10 µM | > 10 µM | > 10 µM | > 10 µM | > 10 µM | > 10 µM | > 10 µM | > 10 µM | > 10 µM | > 10 µM | – | – | – | – | – | – | – | – | – | – | – |
| O=C(Nc1ccc(Cl)cc1C(F)(F)F)c1ccc([N+](=O)[O-])o1 [compound 64228] | – | – | – | – | – | – | – | – | – | – | 1.6 µM | 87% | 111% and 107% | 82% | 70% and 97% | 93% | 90% and 105% | 91% | 97% | 13.2 µM | IC50 (H1650; phenylfuran-2-carboxamide SAR summary, read-out: IC50(uM) 1650): 2.31 µM |
| O=c1c(Cl)c(SCc2ccccc2)cnn1-c1ccccc1 [compound 257022] | > 10 µM | > 10 µM | > 10 µM | > 10 µM | > 10 µM | > 10 µM | > 10 µM | > 10 µM | > 10 µM | > 10 µM | – | – | – | – | – | – | – | – | – | – | – |
| CN/N=C1\C=NN(c2ccc(C)cc2)C(=O)C1Cl (stereo not shown) [compound 257025] | > 10 µM | > 10 µM | > 10 µM | > 10 µM | > 10 µM | > 10 µM | > 10 µM | > 10 µM | > 10 µM | > 10 µM | – | – | – | – | – | – | – | – | – | – | – |
| O=c1c(Br)c(SCc2ccccc2)cnn1-c1ccccc1 [compound 257021] | > 10 µM | > 10 µM | > 10 µM | > 10 µM | > 10 µM | > 10 µM | > 10 µM | > 10 µM | > 10 µM | > 10 µM | – | – | – | – | – | – | – | – | – | – | – |
| O=C(NC1CCCCC1)c1ccc([N+](=O)[O-])o1 [compound 71763] | – | – | – | – | – | – | – | – | – | – | 1.39 µM | 87% | 136% | 61% | 74% | 82% | 97% | 77% | 135% | 24.9 µM | IC50 (H1975; NCI-H1975, phenylfuran-2-carboxamide SAR summary, read-out: IC50(uM) 1975): 3.54 µM; IC50 (H2030; NCI-H2030, phenylfuran-2-carboxamide SAR summary, read-out: IC50(uM) 2030): 3.79 µM; IC50 (H3255; NCI-H3255, phenylfuran-2-carboxamide SAR summary, read-out: IC50(uM) 3255): 2.98 µM |
